Laboratory results as given in EPA's ToxRefDB 2.

Experiments:
rat [1] = conditions: Subchronic oral toxicity in rodents, sprague dawley, Gavage/Intubation, dose end: 93 day, group: systemic
rat [2] = conditions: Prenatal developmental toxicity study, Oral, Gavage/Intubation, dose end: 18 GD
rat [3] = conditions: Sub-acute repeat dose toxicity; sprague dawley; Oral; Gavage/Intubation; dose end: 5 day; group: systemic; systemic / clinical chemistry / aspartate aminotransferase (ast/sgot) / aspartate aminotransferase (ast/sgot) + systemic / in life …
rat [4] = conditions: Sub-acute repeat dose toxicity, sprague dawley, Oral, Gavage/Intubation, dose end: 15 day, group: systemic
dog [5] = conditions: Sub-acute repeat dose toxicity, beagle, Oral, Gavage/Intubation, dose end: 22 day, group: systemic
rabbit [6] = conditions: Prenatal developmental toxicity study, Oral, Gavage/Intubation, dose end: 20 GD, group: maternal
rat [7] = conditions: Sub-acute repeat dose toxicity, sprague dawley, Oral, Gavage/Intubation, dose end: 15 day, group: systemic; remark: listed apart in the source
rat [8] = conditions: Fertility (Segment I), Oral, Gavage/Intubation, dose end: 1 generation
dog [9] = conditions: Subchronic oral toxicity in nonrodent, beagle, Gavage/Intubation, dose end: 94 day, group: systemic
rat [10] = conditions: Prenatal developmental toxicity study, Oral, Gavage/Intubation, dose end: 21 GD
rat [11] = conditions: Chronic toxicity; sprague dawley; Oral; Gavage/Intubation; dose end: 182 day; group: systemic; systemic / clinical chemistry / [other] / [other] + systemic / clinical chemistry / cholesterol / cholesterol + systemic / clinical …
rat [12] = conditions: Sub-acute repeat dose toxicity; Oral; Gavage/Intubation; dose end: 36 day; group: systemic; systemic / in life observation / body weight / body weight + systemic / in life observation / food consumption / food consumption
rabbit [13] = conditions: Prenatal developmental toxicity study, Oral, Gavage/Intubation, dose end: 20 GD, group: maternal; remark: listed apart in the source
rabbit [14] = conditions: Sub-acute repeat dose toxicity, new zealand white, Oral, Gavage/Intubation, dose end: 5 day, group: systemic
dog [15] = conditions: Chronic toxicity, beagle, Oral, Gavage/Intubation, dose end: 272 day, group: systemic
[16] = systemic / in life observation / body weight / body weight gain + systemic / clinical chemistry / [other] / [other] + systemic / clinical …
[17] = group: developmental, systemic / in life observation / body weight / fetal weight
[18] = group: maternal, systemic / in life observation / body weight / body weight gain + systemic / in life observation / clinical signs / alopecia + systemic / in…
[19] = systemic / clinical chemistry / [other] / [other] + systemic / clinical chemistry / cytochrome p450, nos / cytochrome p450, nos + systemic…
[20] = systemic / in life observation / body weight / body weight gain + systemic / in life observation / food consumption / food consumption + …
[21] = systemic / clinical chemistry / alkaline phosphatase (alp/alk) / alkaline phosphatase (alp/alk) + systemic / in life observation / clinical …
[22] = systemic / in life observation / clinical signs / altered breathing rate + systemic / in life observation / clinical signs / convulsions + …
[23] = systemic / in life observation / body weight / body weight + systemic / in life observation / clinical signs / alopecia + systemic / in life…
[24] = group: maternal, reproductive / reproductive performance / estrous cycle / corpora lutea + reproductive / reproductive performance / implantations / …
[25] = group: parental, systemic / in life observation / body weight / body weight + systemic / in life observation / body weight / body weight gain + systemic / in…
[26] = systemic / organ weight / liver / absolute
[27] = systemic / organ weight / liver / absolute + systemic / clinical chemistry / [other] / [other] + systemic / clinical chemistry / alkaline …
[28] = group: maternal, systemic / in life observation / body weight / body weight gain + systemic / in life observation / food consumption / food consumption + …
[29] = systemic / in life observation / mortality / mortality + systemic / in life observation / body weight / body weight gain + systemic / in …
[30] = systemic / in life observation / body weight / body weight + systemic / in life observation / clinical signs / altered breathing rate + …

Compound `COc1ccc(OC(F)(F)F)cc1CN[C@H]1CCCN[C@H]1c1ccccc1` has an LEL (rat [1]; systemic / clinical chemistry / 5' nucleotidase / 5' nucleotidase + systemic / clinical chemistry / aspartate aminotransferase (ast/sgot) / …) of 30 mg/kg/day, an LOAEL (rat [1]; [16]) of over 150 mg/kg/day and an NOAEL (rat [1]; [16]) of at least 150 mg/kg/day. It also gave an LEL (rat [2]; [17]) of 150 mg/kg/day, an LOAEL (rat [2]; [17]) of over 150 mg/kg/day and an NOAEL (rat [2]; [17]) of at least 150 mg/kg/day. For the same compound, the LEL (rat [2]; [18]) was 75 mg/kg/day, the LOAEL (rat [2]; [18]) was over 150 mg/kg/day and the NEL (rat [2]; [18]) was 15 mg/kg/day. It also gave an NOAEL (rat [2]; [18]) of at least 150 mg/kg/day, an LEL (rat [3]) of 400 mg/kg/day and an LOAEL (rat [3]) of over 1000 mg/kg/day. The NEL (rat [3]) was under 400 mg/kg/day, the NOAEL (rat [3]) was at least 1000 mg/kg/day and the LEL (rat [4]; [19]) was 100 mg/kg/day. For the same compound, the NEL (rat [4]; [19]) was under 100 mg/kg/day, the LOAEL (rat [4]; [20]) was over 200 mg/kg/day and the NOAEL (rat [4]; [20]) was at least 200 mg/kg/day. For the same compound, the LEL (dog [5]; systemic / clinical chemistry / alkaline phosphatase (alp/alk) / alkaline phosphatase (alp/alk)) was 10 mg/kg/day, the LOAEL (dog [5]; [21]) was over 30 mg/kg/day and the NOAEL (dog [5]; [21]) was at least 30 mg/kg/day. The LOAEL (rabbit [6]; [22]) was over 75 mg/kg/day, the NEL (rabbit [6]; [22]) was 25 mg/kg/day and the NOAEL (rabbit [6]; [22]) was at least 75 mg/kg/day. It also gave an LEL (rabbit [6]; systemic / in life observation / food consumption / food consumption) of 50 mg/kg/day, an LEL (rat [7]; [19]) of 50 mg/kg/day and an NEL (rat [7]; [19]) of 10 mg/kg/day. It also gave an LOAEL (rat [7]; [23]) of over 400 mg/kg/day, an NOAEL (rat [7]; [23]) of at least 400 mg/kg/day and an LEL (rat [8]; [24]) of 150 mg/kg/day. It also gave an LOAEL (rat [8]; [24]) of over 150 mg/kg/day, an NEL (rat [8]; [24]) of 50 mg/kg/day and an NOAEL (rat [8]; [24]) of at least 150 mg/kg/day. The LOAEL (rat [8]; [25]) was over 150 mg/kg/day, the NEL (rat [8]; [25]) was 5 mg/kg/day and the NOAEL (rat [8]; [25]) was at least 150 mg/kg/day. It also gave an LEL (rat [8]; group: parental, systemic / in life observation / body weight / body weight gain + systemic / in life observation / clinical signs / alopecia + systemic / in…) of 50 mg/kg/day, an LEL (dog [9]; [26]) of 1 mg/kg/day and an NEL (dog [9]; [26]) of under 1 mg/kg/day. The LOAEL (dog [9]; [27]) was over 20 mg/kg/day, the NOAEL (dog [9]; [27]) was at least 20 mg/kg/day and the LEL (rat [10]; [17]) was 100 mg/kg/day. The LOAEL (rat [10]; [17]) was over 100 mg/kg/day, the NOAEL (rat [10]; [17]) was at least 100 mg/kg/day and the LEL (rat [10]; [28]) was 30 mg/kg/day. It also gave an LOAEL (rat [10]; [28]) of over 100 mg/kg/day, an NEL (rat [10]; [28]) of 10 mg/kg/day and an NOAEL (rat [10]; [28]) of at least 100 mg/kg/day. It also gave an LEL (rat [11]) of 30 mg/kg/day, an LOAEL (rat [11]) of over 100 mg/kg/day and an NEL (rat [11]) of 5 mg/kg/day. The NOAEL (rat [11]) was at least 100 mg/kg/day, the LEL (rat [12]) was 50 mg/kg/day and the LOAEL (rat [12]) was over 50 mg/kg/day. It also gave an NEL (rat [12]) of 20 mg/kg/day, an NOAEL (rat [12]) of at least 50 mg/kg/day and an LEL (rabbit [13]; systemic / in life observation / mortality / mortality) of 15 mg/kg/day. It also gave an LOAEL (rabbit [13]; [29]) of over 50 mg/kg/day, an NEL (rabbit [13]; [29]) of 5 mg/kg/day and an NOAEL (rabbit [13]; [29]) of at least 50 mg/kg/day. For the same compound, the LOAEL (rabbit [14]; [30]) was over 200 mg/kg/day, the NEL (rabbit [14]; [30]) was 20 mg/kg/day and the NOAEL (rabbit [14]; [30]) was at least 200 mg/kg/day. The LEL (rabbit [14]; systemic / in life observation / body weight / body weight + systemic / in life observation / food consumption / food consumption) was 100 mg/kg/day, the LOAEL (dog [15]; [21]) was over 20 mg/kg/day and the NOAEL (dog [15]; [21]) was at least 20 mg/kg/day. It also gave an LEL (dog [15]; systemic / in life observation / clinical signs / salivation) of 6 mg/kg/day.
